Experimental data: patent US8222260B2, “Substituted 6-anilinopurine derivatives as inhibitors of cytokinin oxidase/dehydrogenase and preparations containing these derivatives” (Univerzita Palackego V Olomouci, priority 2007, dated 2012)

Columns and labels:
[1] = system: osteosarcoma cell line HOS; assay: Calcein AM cytotoxicity assay; format: cell-based, human; settings: Homo sapiens, 72 hours
Procedure, shortened: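 Cells seeded at 2.500-30.000 per well, pre-incubated 24 h, then exposed 72 h at 37 °C to six 3-fold dilutions (top 166.6 μM), in triplicate. Calcein AM added to 1 μg/ml for 1 h; fluorescence gives growth inhibition, GI50 taken from dose-response curves.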

[2] = system: breast carcinoma cell line MCF-7; assay: Calcein AM cytotoxicity assay; format: cell-based, human; settings: Homo sapiens, MCF7, 72 hours
[3] = system: NIH-3T3 (fibroblasts); assay: Calcein AM cytotoxicity assay; format: cell-based, Mouse; settings: Mus musculus, NIH3T3, 72 hours
Procedure, shortened: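 Cells seeded at 2.500-30.000 per well, pre-incubated 24 hours, then exposed to compound (usually six 3-fold dilutions, triplicates) for 72 hours at 37° C, 5% CO2; NIH-3T3 grown in DMEM with 10% fetal calf serum. Calcein AM added at 1 μg/ml final, fluorescence read after 1 hour. GI calculated as blank-corrected fluorescence relative to untreated control.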

[4] = system: Amaranthus caudatus cotyledon/hypocotyl explants; assay: Amaranthus bioassay (betacyanin content); format: cell-based, Amaranthus caudatus var. atropurpurea; settings: at the concentration with highest activity, relative to 10^−5 M kinetin
Procedure, shortened: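 Etiolated A. caudatus cotyledon/hypocotyl explants (72 h seedlings, roots removed) incubated 48 h at 25 °C in darkness on medium with phosphate buffer pH 6.8, tyrosine and test compound. Betacyanin extracted in acetic acid, quantified as A537−A620.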

Row | SMILES | GI50 [1] [µM] | GI50 [2] [µM] | GI50 [3] [µM] | Activity (%) [10^−5 mol · l^−1 K = 100%] [4] [%]
1 | Clc1nc(Nc2ccccc2)c2[nH]cnc2n1 [Compound 1, 2-Chloro-6-anilinopurine] | > 167 | > 167 | > 167 | 
2 | Clc1cccc(Nc2nc(Cl)nc3nc[nH]c23)c1 [Compound 3, 2-Chloro-6-(3-chloroanilino)purine] | > 167 | > 167 | > 167 | 166
3 | Clc1ccc(Nc2nc(Cl)nc3[nH]cnc23)cc1 [Compound 4] | > 167 | > 167 | > 167 | 107
4 | Fc1cccc(Nc2nc(Cl)nc3nc[nH]c23)c1 [Compound 6, 2-Chloro-6-(3-fluoroanilino)purine] | > 167 | > 167 | > 167 | 120
5 | Oc1cccc(Nc2nc(Cl)nc3nc[nH]c23)c1 [Compound 9, 2-Chloro-6-(3-hydroxyanilino)purine] | > 167 | > 167 | > 167 | 115.4
6 | COc1cccc(Nc2nc(Cl)nc3nc[nH]c23)c1 [Compound 12, 2-Chloro-6-(3-methoxyanilino)purine] | > 167 | > 167 | > 167 | 132.3
7 | Fc1nc(Nc2ccccc2)c2nc[nH]c2n1 [Compound 40] | > 167 | > 167 | > 167 | 107
8 | Fc1nc(Nc2cccc(Cl)c2)c2nc[nH]c2n1 [Compound 42] | > 167 | > 167 | > 167 | 121
9 | Oc1cccc(Nc2nc(F)nc3[nH]cnc23)c1 [Compound 48] | > 167 | > 167 | > 167 | 100.3
10 | COc1cccc(Nc2nc(F)nc3nc[nH]c23)c1 [Compound 51, 2-Fluoro-6-(3-methoxyanilino)purine] | > 167 | > 167 | > 167 | 117.2
11 | Nc1nc(Nc2cccc(Cl)c2)c2nc[nH]c2n1 [Compound 66] | > 167 | > 167 | > 167 | 122
12 | Nc1nc(Nc2cccc(O)c2)c2nc[nH]c2n1 [Compound 72] | > 167 | > 167 | > 167 | 119.8
13 | Fc1cccc(Nc2nc(S)nc3[nH]cnc23)c1 [Compound 83] | > 167 | > 167 | > 167 | 133.5
14 | c1coc(CNc2ncnc3nc[nH]c23)c1 [Kinetin, 6-furfurylaminopurine, reference compound] | > 167 | > 167 | > 167 | 100
